Measured values from patent US8372967B2, “Compounds and methods for modulating expression of GCCR” (Isis Pharmaceuticals, Inc., priority 2006, dated 2013).
Strand notation (5' to 3'): a small letter for the sugar, then the base; units joined by * are phosphorothioate-linked, units joined directly phosphodiester-linked; [ ] holds rarer units or linkages, { } end groups; capitals alone tell only the bases. e = 2'-O-(2-methoxyethyl) (MOE); l = locked nucleic acid (LNA); [5mC] = 5-methylcytosine; d = 2'-deoxy (DNA)

Experiments:
human SGLT2 = target: T1, human SGLT2 (Homo sapiens, UniProt P31639); settings: Xenopus oocytes; cited from earlier work
T1 construct: host or cells: Xenopus oocytes
T1 sequence (P31639 1-672): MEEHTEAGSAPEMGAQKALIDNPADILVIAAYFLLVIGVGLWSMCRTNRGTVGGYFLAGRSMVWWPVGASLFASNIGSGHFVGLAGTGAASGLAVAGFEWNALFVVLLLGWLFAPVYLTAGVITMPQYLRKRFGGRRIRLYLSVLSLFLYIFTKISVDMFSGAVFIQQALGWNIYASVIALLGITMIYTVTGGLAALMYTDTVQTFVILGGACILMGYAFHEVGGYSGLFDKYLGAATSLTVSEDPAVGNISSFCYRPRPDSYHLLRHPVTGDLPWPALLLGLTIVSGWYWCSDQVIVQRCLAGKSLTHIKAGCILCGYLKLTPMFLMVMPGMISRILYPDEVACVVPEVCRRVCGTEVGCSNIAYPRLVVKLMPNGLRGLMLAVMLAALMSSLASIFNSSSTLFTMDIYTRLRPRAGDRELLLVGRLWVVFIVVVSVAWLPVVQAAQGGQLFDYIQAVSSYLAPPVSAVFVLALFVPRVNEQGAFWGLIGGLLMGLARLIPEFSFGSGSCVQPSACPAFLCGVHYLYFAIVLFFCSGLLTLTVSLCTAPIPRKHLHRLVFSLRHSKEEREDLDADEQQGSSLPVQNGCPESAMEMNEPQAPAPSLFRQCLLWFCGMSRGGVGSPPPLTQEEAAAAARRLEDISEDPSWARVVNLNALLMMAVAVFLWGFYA

mouse SGLT2 mRNA [1] = assay: Mouse SGLT2 mRNA in kidney, additional 1-10-1 and 2-8-2 MOE gapmers (Table 68); type: in vivo; settings: Balb/c mouse kidney
mouse SGLT2 mRNA [2] = assay: Mouse SGLT2 mRNA in kidney, MOE versus Methyleneoxy BNA gapmers (Table 69); type: in vivo; settings: Balb/c mouse kidney
Method: The effect of ISIS 3796921-10-1 MOE gapmer and ISIS 3886252-8-2 MOE gapmer are compared with the effect of ISIS 3921701-10-1 Methyleneoxy BNA Gapmer and ISIS 3921732-8-2 Methyleneoxy BNA Gapmer (see Table 69) on mouse SGLT2 mRNA levels in vivo. Data are taken from three experiments in which male 6-week old Balb/c mice were dosed twice per week for three weeks with 5, 25 and 125 nmol/kg of either the ISIS 3796921-10-1 MOE gapmer or the ISIS 3886252-8-2 MOE gapmer given by intraperitoneal injection. Mice were sacrificed 48 hours following last administration and evaluated for SGLT2 mRNA levels in kidney. Target levels were determined by RT, real-time PCR as described by other examples herein. PCR results were normalized to an internal ISIS control. The data are expressed as percent change (“+” indicates an increase, “−” indicates a decrease) relative to saline treated animals and are illustrated in Table 69.

dog SGLT2 mRNA = assay: Dog SGLT2 mRNA levels in kidney (Table 73); type: in vivo; settings: 1 mg/kg/wk dose
Method: (§1) ISIS 388625 is a 2-8-2 MOE Gapmer with sequence […] (SEQ ID NO: 246) (e.g. see Table 71). The effect of ISIS 388625 on dog SGLT2 mRNA levels. Data are taken from two dosing groups in which a total of nine male beagle dogs were dosed with either one or ten mg/kg/week of ISIS 388625 or saline given by subcutaneous injection twice weekly. On day 46 of the study all dogs were sacrificed and evaluated for SGLT2 levels in kidney. Target levels were determined by quantitative RT, real-time PCR as described by other examples herein. PCR results were normalized to an internal ISIS control.

[3] = Plasma glucose in ZDF rat (Table 71); type: in vivo; settings: ZDF rats, 400 nM/kg i.p. once a week for twelve weeks; compared to PBS and control
Method: (§2) ISIS 388625, 388626 and control oligo ISIS 388628 were analyzed for their effect on ZDF rat plasma glucose levels and HbA1c. The leptin receptor deficient Zucker diabetic fatty (ZDF) rat is a useful model for the investigation of type 2 diabetes. Diabetes develops spontaneously in these male rats at ages 8-10 weeks, and is associated with hyperphagia, polyuria, polydipsia, and impaired weight gain, symptoms which parallel the clinical symptoms of diabetes (Phillips M S, et al., 1996, Nat Genet. 13, 18-19). Six week old ZDF rats were injected intraperitoneally with short antisense compound at a dose of 400 nM/kg once a week for twelve weeks. Data are illustrated in Tables 71 and 72.

[4] = HbA1c status in ZDF rat (Table 72); type: in vivo; settings: ZDF rats, 400 nM/kg i.p. once a week for twelve weeks; compared to PBS and control
Method: as §2

rat SGLT2 mRNA [5] = assay: Rat SGLT2 mRNA in kidney, 1-10-1 and 2-8-2 MOE gapmer (Table 70); type: in vivo; settings: Sprague-Dawley rat kidney
Method: The effect of ISIS 3796921-10-1 MOE gapmer and ISIS 388625 MOE 2-8-2 gapmer (see Table 70) on rat SGLT2 mRNA levels in vivo. […] Rats were sacrificed 48 hours following last administration and evaluated for SGLT2 levels in kidney. Target levels were determined by RT, real-time PCR as described by other examples herein. PCR results were normalized to an internal ISIS control.

[6] = Standard glucose tolerance test and urinary glucose excretion in dog; type: in vivo; settings: standard glucose tolerance test, on average, compared to saline controls
Method: as §1
Even greater reduction can be achieved at slightly higher doses. […] Peak plasma glucose levels were decreased by over 50% on average and the subsequent drop in glucose was lessened compared to saline controls in a standard glucose tolerance test.

PTEN mRNA = PTEN mRNA levels in liver, kidney and fat, Balb/c mice, single i.p. 8 μmol/kg (Table 48); type: in vivo, mouse; settings: 72 h, saline = 100
From the text: (§3) Each dose group consisted of four animals. Shown in Table 46 are the sequences and motifs of the PTEN antisense compounds used in this study. Bolded residues indicate 2′-O-methoxyethyl moieties (2′-MOE) and italicized residues indicate Methyleneoxy BNA nucleotides. Each antisense compound comprises phosphorothioate linkages throughout. In addition, the cytosine residues in the gap of ISIS 384073 and in the wings of ISIS 392056, ISIS 392057, ISIS 392061 and ISIS 392063 are replaced with 5-methylcytosines. Antisense compounds target published PTEN nucleic acids, including Genbank Accession No. U92437.1 (SEQ ID
(§4) Mice were sacrificed 72 hours following injection to determine serum transaminase levels (Table 47); liver and spleen weights (Table 47); and PTEN mRNA levels in liver, kidney and fat (Table 48), according to procedures described herein and well know to one of ordinary skill in the art.

[7] = Transaminase levels and organ weights, PTEN study (Table 47); type: in vivo, mouse; settings: single i.p. 8 μmol/kg, 72 h
From the text: as §3, §4

mouse SGLT2 mRNA [8] = assay: Mouse SGLT2 mRNA in kidney, wing, gap and total length variations (Table 61); type: in vivo
Method: ISIS 3707171-10-1 MOE gapmer was used as a template to make sequence related oligos with varying motifs. The antisense compounds were designed to target different regions of the mouse or rat SGLT2 nucleic acid, using published sequences (GenBank accession number U29881.1, incorporated herein as SEQ ID NO: 1575, and GenBank accession number AJ292928.1, incorporated herein as SEQ ID NO: 1576, respectively).
The antisense compounds were analyzed for their effect on mouse SGLT2 mRNA levels. Data are ranges taken from three experiments in which mice were dosed twice per week for three weeks with 2.5, 0.5 or 0.1 umol/kg of the above MOE gapmers given by intraperitoneal injection. Mice were sacrificed 48 hours following last administration and evaluated for SGLT2 levels in kidney. SGLT2 mRNA levels were determined by RT, real-time PCR as described by other examples herein. PCR results were normalized to an internal ISIS control.

mouse SGLT2 mRNA [9] = assay: Mouse SGLT2 mRNA in kidney, 1-10-1 MOE gapmers, Balb/c mice (Table 65); type: in vivo
Method: The short antisense compounds were analyzed for their effect on mouse SGLT2 mRNA levels. Data was taken from three experiments in which Male 6-week old Balb/c mice were dosed twice per week for two weeks with 450, 150, or 50 nmol/kg of one of the above 1-10-1 MOE gapmers given by intraperitoneal injection. Mice were sacrificed 48 hours following last administration and evaluated for SGLT2 mRNA levels in kidney. Target levels were determined by RT, real-time PCR as described by other examples herein. PCR results were normalized to an internal ISIS control.

rat SGLT2 mRNA [10] = assay: Rat SGLT2 mRNA in kidney, 1-10-1 and 1-10-2 MOE gapmers, Sprague-Dawley rats (Table 63); type: in vivo
rat SGLT2 mRNA [11] = assay: Rat SGLT2 mRNA in kidney, 1-10-1 gapmers, 250 nmol/kg (Table 66); type: in vivo; settings: 250 nmol/kg i.p. twice per week for three weeks, Sprague-Dawley rat kidney
Method: The effect of the above 1-10-1 gapmers (see Table 64 above) on rat SGLT2 mRNA levels. Data are taken from four experiments in which male Sprague-Dawley rats (170-200 g) were dosed twice per week for three weeks with 250 nmol/kg given by intraperitoneal injection. Rats were sacrificed 48 hours following last administration and evaluated for SGLT2 mRNA levels in kidney. Target levels were determined by RT, real-time PCR as described by other examples herein. PCR results were normalized to an internal ISIS control.

[12] = 0.1 umol/kg i.p. twice per week for three weeks
[13] = 0.5 umol/kg i.p. twice per week for three weeks

In the case of O=C(CCc1ccc(O)cc1)c1c(O)cc(O)cc1O[C@@H]1O[C@H](CO)[C@@H](O)[C@H](O)[C@H]1O [phlorizin], the transport activity (human SGLT2) is listed as “suppressed”.
In the case of “ISIS 388625: TGTTCCAGCCCA 2-8-2 MOE Gapmer, SGLT2 (eT*eG*dT*dT*d[5mC]*d[5mC]*dA*dG*d[5mC]*d[5mC]*e[5mC]*eA)”, the “% change in SGLT2 expression relative to saline” value (mouse SGLT2 mRNA [1]; 0.02 umol/kg i.p. twice per week for three weeks) is reported as −65%, the “% change in SGLT2 expression relative to saline” value (mouse SGLT2 mRNA [1]; [12]) is reported as −88% and the “% change in SGLT2 expression relative to saline” value (mouse SGLT2 mRNA [1]; [13]) is reported as −90%. The “SGLT2 mRNA, percent change relative to saline treated animals” value (mouse SGLT2 mRNA [2]; 5 nmol/kg i.p. twice per week for three weeks) was −18%, the “SGLT2 mRNA, percent change relative to saline treated animals” value (mouse SGLT2 mRNA [2]; 25 nmol/kg i.p. twice per week for three weeks) was −47% and the “SGLT2 mRNA, percent change relative to saline treated animals” value (mouse SGLT2 mRNA [2]; 125 nmol/kg i.p. twice per week for three weeks) was −70%. The “reduction of SGLT2 mRNA” value (dog SGLT2 mRNA) was “greater than 80%”, the Plasma glucose levels [3] was “significantly reduced” and the HbA1C [4] was “significantly reduced”. The “% change in SGLT2 expression relative to saline” value (rat SGLT2 mRNA [5]; dose 3.125 umol/kg [sic] i.p. twice per week for three weeks) was “+25%”, the “% change in SGLT2 expression relative to saline” value (rat SGLT2 mRNA [5]; dose 12.5 umol/kg [sic] i.p. twice per week for three weeks) was −15% and the “% change in SGLT2 expression relative to saline” value (rat SGLT2 mRNA [5]; dose 50 umol/kg [sic] i.p. twice per week for three weeks) was −65%. For the same molecule, the “% change in SGLT2 expression relative to saline” value (rat SGLT2 mRNA [5]; dose 200 umol/kg [sic] i.p. twice per week for three weeks) was −80% and the “Peak plasma glucose levels decreased” value [6] was “over 50%”.
For “391172 (antisense lC*lT*dA*dG*dC*dC*dT*dC*dT*dG*dG*dA*lT*lT*lT) [compound 391172]”, the “% PTEN mRNA levels in Kidney” value (PTEN mRNA) was 63%, the “% PTEN mRNA levels in Liver” value (PTEN mRNA) was 18% and the “Liver Weight” value [7] was 120 % Saline.
In the case of “392061 (antisense l[5mC]*lT*dA*dG*dC*dC*dT*dC*dT*dG*dG*dA*lT*lT) [compound 392061]”, the “% PTEN mRNA levels in Fat” value (PTEN mRNA) is reported as 85%, the “% PTEN mRNA levels in Kidney” value (PTEN mRNA) is reported as 61% and the “% PTEN mRNA levels in Liver” value (PTEN mRNA) is reported as 24%. The ALT [7] was 42.0 IU/L.
With “ISIS 370717: TAGCCACCAACT 1-10-1 MOE gapmer, phosphorothioate, SGLT-2 (sugars from the 5' end e1 d10 e1, all phosphorothioate, methylation of C not given here)” the “% change in SGLT2 expression relative to saline” value (mouse SGLT2 mRNA [8]; [12]) was −55%, the “% change in SGLT2 expression relative to saline” value (mouse SGLT2 mRNA [8]; [13]) was −70% and the “% change in SGLT2 expression relative to saline” value (mouse SGLT2 mRNA [9]; 50 nmol/kg i.p. twice per week for two weeks) was −47.5%. The “% change in SGLT2 expression relative to saline” value (mouse SGLT2 mRNA [9]; 150 nmol/kg i.p. twice per week for two weeks) was −55%, the “% change in SGLT2 expression relative to saline” value (mouse SGLT2 mRNA [9]; 450 nmol/kg i.p. twice per week for two weeks) was −65% and the “% change in SGLT2 expression relative to saline” value (rat SGLT2 mRNA [10]; 50 nmol/kg i.p. twice per week for three weeks) was −55%. For the same molecule, the “% change in SGLT2 expression relative to saline” value (rat SGLT2 mRNA [10]; 150 nmol/kg i.p. twice per week for three weeks) was −70%, the “% change in SGLT2 expression relative to saline” value (rat SGLT2 mRNA [10]; 450 nmol/kg i.p. twice per week for three weeks) was −70% and the “% change in SGLT2 expression relative to saline” value (rat SGLT2 mRNA [11]) was −70%.
